# Assays:
# [1] = target: BTK wildtype protein (Homo sapiens (Human), UniProt Q06187); test: BTK wildtype HTRF displacement assay; format: binding; settings: 1-hour incubation; read-out: BTK (wt) IC50
# How it was run: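 Full-length N-terminal GST-tagged BTK incubated 1 h at room temperature with compound (6 doses, four-fold dilutions from 5 μM top) plus kinase tracer 239 and anti-GST-Tb antibody. Tracer displacement read as TR-FRET 665/620 ratio, background-subtracted using no-protein control. IC50 from four-parameter fit constrained 0–100% inhibition.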
# [2] = target: BTK C481S protein (Homo sapiens (Human), UniProt Q06187, C481S); test: BTK C481S HTRF displacement assay; format: binding; settings: 1-hour incubation
# How it was run: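 N-terminal GST-tagged BTK C481S (2-659) incubated 1 hour at room temperature with compound (6 doses, four-fold from 5 μM), 50 nM kinase tracer 239 and anti-GST-Tb antibody. TR-FRET 665/620 ratio, background-subtracted; IC50 from constrained four-parameter fit. KI=IC50/(1+[Tracer]/Kd), tracer Kd 54 nM.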
# Sequence of BTK wildtype protein (Q06187 2-659): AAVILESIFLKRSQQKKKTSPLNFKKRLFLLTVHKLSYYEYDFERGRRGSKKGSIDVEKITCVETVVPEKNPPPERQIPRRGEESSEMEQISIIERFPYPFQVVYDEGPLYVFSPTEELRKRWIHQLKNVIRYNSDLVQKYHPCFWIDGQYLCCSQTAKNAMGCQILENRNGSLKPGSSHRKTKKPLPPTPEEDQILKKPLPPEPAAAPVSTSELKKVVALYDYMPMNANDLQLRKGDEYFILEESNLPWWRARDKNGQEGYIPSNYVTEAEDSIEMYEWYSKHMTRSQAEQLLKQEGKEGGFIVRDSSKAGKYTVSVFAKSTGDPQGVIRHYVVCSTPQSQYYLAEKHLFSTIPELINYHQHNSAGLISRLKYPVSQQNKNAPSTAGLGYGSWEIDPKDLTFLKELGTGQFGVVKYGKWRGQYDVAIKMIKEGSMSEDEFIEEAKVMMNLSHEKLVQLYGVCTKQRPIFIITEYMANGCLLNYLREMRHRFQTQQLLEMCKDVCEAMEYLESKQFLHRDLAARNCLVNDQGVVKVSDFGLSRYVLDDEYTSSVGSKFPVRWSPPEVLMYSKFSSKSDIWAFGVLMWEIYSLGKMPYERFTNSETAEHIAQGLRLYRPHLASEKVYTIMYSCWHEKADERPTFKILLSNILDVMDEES
# Sequence of BTK C481S protein (Q06187 2-659 C481S): as the sequence (Q06187 2-659) above, with C480S counted along it
IC50 [1] [nM],IC50 [2] [nM],SMILES
≤ 1000,> 1000,COc1ccc(F)cc1C(=O)NCc1ccc(-c2nn(C(CCN(C)C(=O)n3cncn3)C3CC3)c3ncnc(N)c23)cc1 (centres unmarked) [Compound 161]
> 1000,> 1000,"COc1ccc(F)cc1C(=O)NCc1ccc(-c2nn(C(C)CC3CCCN3C(=O)n3cncn3)c3ncnc(N)c23)cc1 (centres unmarked) [Compound 279, N-(4-(1-(1-(1-(1H-1,2,4-triazole-1-carbonyl)pyrrolidin-2-yl)propan-2-yl)-4-amino-1H-pyrazolo[3,4-d]pyrimidin-3-yl)benzyl)-5-fluoro-2-methoxybenzamide]"
> 1000,> 1000,"CC(C)[C@@H](C1CCNc2c(C(N)=O)c(-c3ccc(Oc4ccccc4)cc3)nn21)N(C)C(=O)n1cncn1 (stereo partly drawn) [Compound 301, 7-((S)-2-methyl-1-(N-methyl-1H-1,2,4-triazole-1-carboxamido)propyl)-2-(4-phenoxyphenyl)-4,5,6,7-tetrahydropyrazolo [1,5-a]pyrimidine-3-carboxamide]"
≤ 1000,≤ 1000,"Cc1[nH]c2c(C(N)=O)cc(F)c(N3CCC4(CC3)CCN4C(=O)n3cncn3)c2c1C [Compound 142, 4-(1-(1H-1,2,4-triazole-1-carbonyl)-1,7-diazaspiro[3.5]nonan-7-yl)-5-fluoro-2,3-dimethyl-1H-indole-7-carboxamide]"
> 1000,> 1000,"CCN(CC1CCNc2c(C(N)=O)c(-c3ccc(Oc4ccccc4)cc3)nn21)C(=O)n1cncn1 (centres unmarked) [Compound 120, 7-((N-ethyl-1H-1,2,4-triazole-1-carboxamido)methyl)-2-(4-phenoxyphenyl)-4,5,6,7-tetrahydro-pyrazolo[1,5-a]pyrimidine-3-carboxamide]"
> 1000,> 1000,"NC(=O)c1c(-c2ccc(Oc3ccccc3)cc2)nn2c1NCC1CN(C(=O)n3cncn3)CC12 (centres unmarked) [Compound 228, 2-(4-phenoxyphenyl)-7-(1H-1,2,4-triazole-1-carbonyl)-5,5a,6,7,8,8a-hexahydro-4H-pyrazolo[1,5-a] pyrrolo[3,4-e]pyrimidine-3-carboxamide]"
≤ 1000,> 1000,"CNc1c(C(N)=O)c(-c2ccc(Oc3ccccc3)cc2)nn1C[C@@H]1CCCCN1C(=O)n1cncn1 [Compound 238, (S)-1-((1-(1H-1,2,4-triazole-1-carbonyl)piperidin-2-yl)methyl)-5-(methylamino)-3-(4-phenoxyphenyl)-1H-pyrazole-4-carboxamide]"
≤ 1000,≤ 1000,"COc1ccc(F)cc1C(=O)NCc1ccc(-c2nn(C[C@@H](C)N(C)C(=O)n3cncn3)c3ncnc(N)c23)cc1 [Compound 125, (R)-N-(1-(4-amino-3-(4-((5-fluoro-2-methoxybenzamido)methyl)phenyl)-1H-pyrazolo[3,4-d]pyrimidin-1-yl)propan-2-yl)-N-methyl-1H-1,2,4-triazole-1-carboxamide]"
> 1000,> 1000,"COc1ccc(F)cc1C(=O)NCc1ccc(-c2nn(C(CN(C(=O)n3cncn3)C3CC3)C3CC3)c3ncnc(N)c23)cc1 (centres unmarked) [Compound 231, N-(2-(4-amino-3-(4-((5-fluoro-2-methoxybenzamido)methyl)phenyl)-1H-pyrazolo[3,4-d]pyrimidin-1-yl)-2-cyclopropyl-ethyl)-N-cyclopropyl-1H-1,2,4-triazole-1-carboxamide]"
≤ 1000,≤ 1000,"COc1ccc(F)cc1C(=O)NCc1ccc(-c2nn([C@H]3CC[C@H](N(C)C(=O)n4cncn4)C3)c3ncnc(N)c23)cc1 [Compound 312, N-((1S,3S)-3-(4-amino-3-(4-((5-fluoro-2-methoxybenzamido)methyl)phenyl)-1H-pyrazolo [3,4-d]pyrimidin-1-yl)cyclopentyl)-N-methyl-1H-1,2,4-triazole-1-carboxamide]"
≤ 1000,≤ 1000,"Cc1[nH]c2c(C(N)=O)cc(F)c(N3CCC(N(C)C(=O)n4cncn4)C3)c2c1C (centres unmarked) [Compound 128, 5-fluoro-2,3-dimethyl-4-(3-(N-methyl-1H-1,2,4-triazole-1-carboxamido)pyrrolidin-1-yl)-1H-indole-7-carboxamide]"
≤ 1000,≤ 1000,"COc1ccc(F)cc1C(=O)NCc1ccc(-c2nn([C@H]3CCCC[C@H](N(C)C(=O)n4cncn4)C3)c(N)c2C(N)=O)cc1 [Compound 232, N-((1S,3S)-3-(5-amino-4-carbamoyl-3-(4-((5-fluoro-2-methoxybenzamido)methyl)phenyl)-1H-pyrazol-1-yl)cycloheptyl)-N-methyl-1H-1,2,4-triazole-1-carboxamide]"
≤ 1000,≤ 1000,"COc1ccc(F)cc1C(=O)NCc1ccc(-c2nn(C3(CCN(C)C(=O)n4cncn4)CCC3)c3ncnc(N)c23)cc1 [Compound 213, N-(2-(1-(4-amino-3-(4-((5-fluoro-2-methoxybenzamido)methyl)phenyl)-1H-pyrazolo[3,4-d]pyrimidin-1-yl)cyclobutyl)ethyl)-N-methyl-1H-1,2,4-triazole-1-carboxamide]"
> 1000,> 1000,"COc1ccc(F)cc1C(=O)NCc1ccc(-c2nn(-c3ccccc3CN(C)C(=O)n3cncn3)c3ncnc(N)c23)cc1 [Compound 143, N-(2-(4-amino-3-(4-((5-fluoro-2-methoxybenzamido)methyl)phenyl)-1H-pyrazolo[3,4-d]pyrimidin-1-yl)benzyl)-N-methyl-1H-1,2,4-triazole-1-carboxamide]"
≤ 1000,≤ 1000,"NC(=O)c1c(-c2ccc(Oc3ccccc3)cc2)nn(C2CCCC3C2CCN3C(=O)n2cncn2)c1N (centres unmarked) [Compound 197, 1-(1-(1H-1,2,4-triazole-1-carbonyl)octahydro-1H-indol-4-yl)-5-amino-3-(4-phenoxy-phenyl)-1H-pyrazole-4-carboxamide]"
≤ 1000,> 1000,"COc1ccc(F)cc1C(=O)NCc1ccc(-c2nn(C3(CN(C)C(=O)n4cnc(C#N)n4)CC3)c3ncnc(N)c23)cc1 [Compound 117, N-((1-(4-amino-3-(4-((5-fluoro-2-methoxybenzamido)methyl)phenyl)-1H-pyrazolo[3,4-d]pyrimidin-1-yl)cyclopropyl)methyl)-3-cyano-N-methyl-1H-1,2,4-triazole-1-carboxamide]"
> 1000,> 1000,"CC(C)[C@H](C1CCNc2c(C(N)=O)c(-c3ccc(Oc4ccccc4)cc3)nn21)N(C)C(=O)n1cncn1 (stereo partly drawn) [Compound 242, 7-((R)-2-methyl-1-(N-methyl-1H-1,2,4-triazole-1-carboxamido)propyl)-2-(4-phenoxyphenyl)-4,5,6,7-tetrahydropyrazolo[1,5-a] pyrimidine-3-carboxamide]"
≤ 1000,≤ 1000,"CC1CC(n2nc(-c3ccc(Oc4ccccc4)cc3)c3c(N)ncnc32)CC(C)N1C(=O)n1cncn1 (centres unmarked) [Compound 101, (4-(4-amino-3-(4-phenoxyphenyl)-1H-pyrazolo[3,4-d]pyrimidin-1-yl)-2,6-dimethylpiperidin-1-yl)(1H-1,2,4-triazol-1-yl)methanone]"
≤ 1000,≤ 1000,"COc1ccc(F)cc1C(=O)NCc1ccc(-c2nn(C[C@H]3CCN3C(=O)n3cncn3)c3ncnc(N)c23)cc1 [Compound 108, (R)-N-(4-(1-((1-(1H-1,2,4-triazole-1-carbonyl)azetidin-2-yl)methyl)-4-amino-1H-pyrazolo[3,4-d]pyrimidin-3-yl)benzyl)-5-fluoro-2-methoxybenzamide]"
≤ 1000,≤ 1000,"COc1ccc(F)cc1C(=O)NCc1ccc(-c2nn([C@@H]3CCC[C@H](N(C)C(=O)n4cncn4)C3)c(N)c2C(N)=O)cc1 (relative stereo) [Compound 284, N-((1S,3R)-3-(5-amino-4-carbamoyl-3-(4-((5-fluoro-2-methoxy-benzamido)methyl)phenyl)-1H-pyrazol-1-yl)cyclohexyl)-N-methyl-1H-1,2,4-triazole-1-carboxamide]"
≤ 1000,≤ 1000,"COc1ccc(F)cc1C(=O)NCc1ccc(-c2nn(C[C@@H]3CCCN3C(=O)n3cncn3)c3ncnc(N)c23)cc1 [Compound 251, (S)-N-(4-(1-((1-(1H-1,2,4-triazole-1-carbonyl)pyrrolidin-2-yl)methyl)-4-amino-1H-pyrazolo[3,4-d]pyrimidin-3-yl)benzyl)-5-fluoro-2-methoxybenzamide]"
> 1000,> 1000,"COc1ccc(F)cc1C(=O)NCc1ccc(-c2nn(CCN(C(=O)n3cncn3)C3CC3)c3ncnc(N)c23)cc1 [Compound 316, N-(2-(4-amino-3-(4-((5-fluoro-2-methoxybenzamido)methyl)phenyl)-1H-pyrazolo[3,4-d]pyrimidin-1-yl)ethyl)-N-cyclopropyl-1H-1,2,4-triazole-1-carboxamide]"
> 1000,> 1000,"COc1ccc(F)cc1C(=O)NCc1ccc(-c2nn(CC3CC(O)CCN3C(=O)n3cncn3)c3ncnc(N)c23)cc1 (centres unmarked) [Compound 298, N-(4-(4-amino-1-((4-hydroxy-1-(1H-1,2,4-triazole-1-carbonyl)piperidin-2-yl)methyl)-1H-pyrazolo[3,4-d]pyrimidin-3-yl)benzyl)-5-fluoro-2-methoxybenzamide]"
≤ 1000,≤ 1000,"Cc1[nH]c2c(C(N)=O)cc(F)c(N3CCCC(N(C)C(=O)n4cncn4)C3)c2c1C (centres unmarked) [Compound 262, 5-fluoro-2,3-dimethyl-4-(3-(N-methyl-1H-1,2,4-triazole-1-carboxamido)piperidin-1-yl)-1H-indole-7-carboxamide]"
≤ 1000,> 1000,"COc1ccc(F)cc1C(=O)NCc1ccc(-c2nn(-c3cc(N(C)C(=O)n4cncn4)ccc3C)c3ncnc(N)c23)cc1 [Compound 276, N-(3-(4-amino-3-(4-((5-fluoro-2-methoxybenzamido)methyl)phenyl)-1H-pyrazolo[3,4-d]pyrimidin-1-yl)-4-methylphenyl)-N-methyl-1H-1,2,4-triazole-1-carboxamide]"
